# Assay results from patent publication US8987287B2, “Spirocyclic morphinans and their use” (Purdue Pharma L.P., priority 2012, dated 2015).
# Experiments:
# κ opioid receptor = κ opioid receptor (Homo sapiens (Human), UniProt P41145); assay: κ-opioid receptor [35S]GTPγS functional assay, U-2 OS cells; assay type: biochemical; settings: for Emax: relative to U69,593, U-2 OS cells
# Description: κ-Opioid Receptor Functional Assay Procedures: Functional [^35S]GTPγS binding assays were conducted as follows. κ opioid receptor membrane solution was prepared by sequentially adding final concentrations of 0.026 μg/μl κ membrane protein (in-house), 10 μg/mL saponin, 3 μM GDP and 0.20 nM [^35S]GTPγS to binding buffer (100 mM NaCl, 10 mM MgCl2, 20 mM HEPES, pH 7.4) on ice. The prepared membrane solution (190 μl/well) was transferred to 96-shallow well polypropylene plates containing 10 μl of 20× concentrated stock solutions of agonist prepared in DMSO. Plates were incubated for 30 min at a temperature of about 25° C. with shaking. Reactions were terminated by rapid filtration onto 96-well Unifilter GF/B filter plates (Perkin Elmer, Shelton, Conn.) using a 96-well tissue harvester (Packard) and followed by three filtration washes with 200 μl ice-cold binding buffer (10 mM NaH2PO4, 10 mM Na2HPO4, pH 7.4). Filter plates were subsequently dried at 50° C. for 2-3 hours. Fifty μl/well scintillation cocktail (Perkin Elmer, Shelton, Conn.) was added and plates were counted in a Packard Top-Count for 1 min/well.
# κ-Opioid Receptor Functional Data: κ GTP EC50 is the concentration of a compound providing 50% of the maximal response for the compound at a κ receptor.
# κ GTP Emax (%) is the maximal effect elicited by a compound relative to the effect elicited by U69,593.
# (§1) The following TABLE 3 provides results on the activity response of certain Compounds of the Invention at the μ- and κ-opioid receptors determined as described above using U-2 OS cells.
# μ-opioid receptor = μ-opioid receptor (Homo sapiens (Human), UniProt P35372); assay: μ-opioid receptor [35S]GTPγS functional assay, U-2 OS cells; assay type: biochemical; settings: for Emax: relative to DAMGO, U-2 OS cells
# Description: μ-Opioid Receptor Functional Assay Procedures: [^35S]GTPγS functional assays were conducted using freshly thawed μ-receptor membranes prepared in-house from a cell line expressing recombinant μ opioid receptor in a HEK-293, CHO or U-2 OS cell background, or purchased from a commercial source (Perkin Elmer, Shelton, Conn.; or DiscovRx, Fremont, Calif.). Assay reactions were prepared by sequentially adding the following reagents to binding buffer (100 mM NaCl, 10 mM MgCl2, 20 mM HEPES, pH 7.4) on ice (final concentrations indicated): membrane protein (0.026 mg/mL), saponin ([…]), GDP ([…]) and [^35S]GTPγS (0.20 nM; Perkin Elmer, Shelton, Conn.). The prepared membrane solution (190 μl/well) was transferred to 96-shallow well polypropylene plates containing 10 μl of 20× concentrated stock solutions of the agonist [D-Ala^2, N-methyl-Phe^4 Gly-ol^5]-enkephalin (DAMGO) prepared in dimethyl sulfoxide (DMSO). Plates were incubated for 30 min at about 25° C. with shaking. Reactions were terminated by rapid filtration onto 96-well Unifilter GF/B filter plates (Perkin Elmer, Shelton, Conn.) using a 96-well tissue harvester (Perkin Elmer, Shelton, Conn.) followed by three filtration washes with 200 μl of ice-cold wash buffer (10 mM NaH2PO4, 10 mM Na2HPO4, pH 7.4). Filter plates were subsequently dried at 50° C. for 2-3 hours. BetaScint scintillation cocktail (Perkin Elmer, Shelton, Conn.) was added (50 μl/well) and plates were counted using a Packard Top-Count for 1 min/well. Data were analyzed using the sigmoidal dose-response curve fitting functions in GraphPad PRISM v. 3.0, or an in-house function for non-linear, sigmoidal dose-response curve-fitting.
# μ-Opioid Receptor Functional Data: μ GTP EC50 is the concentration of a compound providing 50% of the maximal response for the compound at a μ-opioid receptor.
# μ GTP Emax (%) is the maximal effect elicited by a compound relative to the effect elicited by DAMGO, a standard μ agonist. Generally, the μ GTP Emax (%) value measures the efficacy of a compound to treat or prevent pain or other Conditions.
# as §1
SMILES,EC50 (κ opioid receptor),Emax (κ opioid receptor),EC50 (μ-opioid receptor),Emax (μ-opioid receptor)
O=C1NC(=O)[C@@]2(CC[C@@]3(O)[C@H]4Cc5ccc(O)cc5[C@@]3(CCN4CCF)C2)N1 [Compound 30],38.2 ± 12 nM,99.7 ± 1.67%,102 ± 30.2 nM,56.7 ± 4.33%
"CCN1C(=O)N[C@]2(CC[C@@]3(O)[C@H]4Cc5ccc(O)cc5[C@@]3(CCN4CC)C2)C1=O [Compound 31, (4bR,4′S,8aS,9R)-1′,11-diethyl-3,8a-dihydroxy-5,7,8,8a,9,10-hexahydrospiro[9,4b-(epiminoethano)phenanthrene-6,4′-imidazolidine]-2′,5′-dione]",445 ± 197 nM,102 ± 4.48%,1510 ± 309 nM,88.9 ± 0.94%
"O=C1NC(=O)[C@@]2(CC[C@@]3(O)[C@H]4Cc5ccc(O)cc5[C@@]3(CCN4CC(F)(F)F)C2)N1 [Compound 32, (4bR,4′S,8aS,9R)-3,8a-dihydroxy-11-(2,2,2-trifluoroethyl)-5,7,8,8a,9,10-hexahydrospiro[9,4b-(epiminoethano)phenanthrene-6,4′-imidazolidine]-2′,5′-dione]",523 ± 180 nM,104 ± 1.2%,> 20000 nM,1.5%
"O=C1NC(=O)[C@@]2(CC[C@@]3(O)[C@H]4Cc5ccc(O)cc5[C@@]3(CCN4CCC(F)(F)F)C2)N1 [Compound 33, (4bR,4′S,8aS,9R)-3,8a-dihydroxy-11-(3,3,3-trifluoropropyl)-5,7,8,8a,9,10-hexahydrospiro[9,4b-(epiminoethano)phenanthrene-6,4′-imidazolidine]-2′,5′-dione]",393 ± 13.5 nM,98.3 ± 1.45%,272 ± 18 nM,39.7 ± 1.86%
"O=C1NC(=O)[C@@]2(CC[C@@]3(O)[C@H]4Cc5ccc(O)cc5[C@@]3(CCN4CCCC(F)(F)F)C2)N1 [Compound 34, (4bR,4′S,8aS,9R)-3,8a-dihydroxy-11-(4,4,4-trifluorobutyl)-5,7,8,8a,9,10-hexahydrospiro[9,4b-(epiminoethano)phenanthrene-6,4′-imidazolidine]-2′,5′-dione]",2240 ± 120 nM,87.7 ± 3.28%,869 ± 131 nM,47 ± 2.08%
"O=C1NC(=O)[C@@]2(CC[C@@]3(O)[C@H]4Cc5ccc(O)cc5[C@@]3(CCN4CCc3ccccc3)C2)N1 [Compound 35, (4bR,4′S,8aS,9R)-3,8a-dihydroxy-11-phenethyl-5,7,8,8a,9,10-hexahydrospiro[9,4b-(epiminoethano)phenanthrene-6,4′-imidazolidine]-2′,5′-dione]",270 ± 44.1 nM,84 ± 1.53%,1.23 ± 0.093 nM,104 ± 3.51%
"O=C1NC(=O)[C@@]2(CC[C@@]3(O)[C@H]4Cc5ccc(O)cc5[C@@]3(CCN4CCCc3ccccc3)C2)N1 [Compound 36, (4bR,4′S,8aS,9R)-3,8a-dihydroxy-11-(3-phenylpropyl)-5,7,8,8a,9,10-hexahydrospiro[9,4b-(epiminoethano)phenanthrene-6,4′-imidazolidine]-2′,5′-dione]",2500 ± 277 nM,84.3 ± 2.6%,442 ± 21.2 nM,77.7 ± 3.53%
"C=C(C)CCN1CC[C@]23C[C@]4(CC[C@@]2(O)[C@H]1Cc1ccc(O)cc13)NC(=O)NC4=O [Compound 37, (4bR,4′S,8aS,9R)-3,8a-dihydroxy-11-(3-methylbut-3-en-1-yl)-5,7,8,8a,9,10-hexahydrospiro[9,4b-(epiminoethano)phenanthrene-6,4′-imidazolidine]-2′,5′-dione]",33.5 ± 9.67 nM,101 ± 1.76%,18.7 ± 2.53 nM,92 ± 5%
"O=C1NC(=O)[C@@]2(CC[C@@]3(O)[C@H]4Cc5ccc(O)cc5[C@@]3(CCN4CC(F)F)C2)N1 [Compound 38, (4bR,4′S,8aS,9R)-11-(2,2-difluoroethyl)-3,8a-dihydroxy-5,7,8,8a,9,10-hexahydrospiro[9,4b-(epiminoethano)phenanthrene-6,4′-imidazolidine]-2′,5′-dione]",441 ± 144 nM,99 ± 3.51%,> 20000 nM,12 ± 1%
